In brackets after ≈: the same amount, converted by molar mass. Like-named read-outs stand apart in the source and are kept apart here.
Key:
M. Smegmatis ATCC607 = experiment: In-vitro method for testing compounds for anti-bacterial activity against strain M. smegmatis ATCC607 (Alamar Blue growth inhibition); type: cell-based; conditions: M. smegmatis ATCC607, pIC50 = -logIC50, IC50 in M, 50% inhibitory concentration for bacterial growth, 48 hours incubation
Description: C.2. In-vitro Method for Testing Compounds for Anti-bacterial Activity Against Strain M. Smegmatis ATCC607. […] Subsequently, stock solutions (7.8×final test concentration) of compounds were added in 45 μl volumes to a series of duplicate wells in column 2 so as to allow evaluation of their effects on bacterial growth. Serial five-fold dilutions (45 μl in 180 μl) were made directly in the microtiter plates from column 2 to 11 using a customised robot system (Zymark Corp., Hopkinton, Mass.). Pipette tips were changed after every 3 dilutions to minimize pipetting errors with high hydrophobic compounds. Untreated control samples with (column 1) and without (column 12) inoculum were included in each microtiter plate. Approximately 250 CFU per well of bacteria inoculum, in a volume of 100 μl in 2.8×Mueller-Hinton broth medium, was added to the rows […]. The same volume of broth medium without inoculum was added to column 12 in row A to H. The cultures were incubated at 37° C. for 48 hours in a humidified 5% CO2 atmosphere (incubator with open air valve and continuous ventilation). At the end of incubation, two days after inoculation, the bacterial growth was quantitated fluorometrically. Therefore Alamar Blue (10×) was added to all wells in a volume of 20 μl and plates were incubated for another 2 hours at […] The fluorescence was read in a computer-controlled fluorometer (Cytofluor, Biosearch) at an excitation wavelength of 530 nm and an emission wavelength of 590 nm (gain 30). The % growth inhibition achieved by the compounds was calculated according to standard methods.

[1] = test system: Mycobacterium tuberculosis (strain H37RV); experiment: In-vitro method for testing compounds against M. tuberculosis (resazurin growth inhibition, MIC); type: cell-based; conditions: MIC data representing IC90's, 7 days incubation, resazurin fluorescence
[2] = Mycobacterium tuberculosis, H37RV, 168 h, read-out: MIC

| SMILES | pIC50 (M. Smegmatis ATCC607) | MIC [1] [microgram/ml] | MIC [1, 2] [µg/mL] | IC50 (M. Smegmatis ATCC607; Mycolicibacterium smegmatis, ATCC607, 48 h, read-out: pIC50 (converted)) [nM] |
| --- | --- | --- | --- | --- |
| COc1nc2ccc(Cl)cc2cc1C(c1ccccc1)C(O)(CCN(C)C)c1cccc2ccccc12 (single isomer, unassigned) [Compound 119] | 7.8 | 10.20 | – | – |
| COc1nc2ccc(Br)cc2cc1C(c1ccccc1)C(O)(CCN1CCN(C)CC1)c1ccc2ccccc2c1 (racemic) [Compound 136] | 6.2 | 16.81 | – | – |
| CCN(CC)CCCC(O)(c1ccc2ccccc2c1)C(c1ccccc1)c1cc2cc(Br)ccc2nc1OC (single isomer, unassigned) [Compound 192] | 6.5 | 5.98 | – | – |
| COc1nc2ccc(Br)cc2cc1C(c1ccccc1)C(O)(CCN(C)C)c1cc(F)cc(F)c1 (stereo not drawn) [Compound 115] | 8.6 | 0.07 | – | – |
| COc1nc2ccc(Br)cc2cc1C(c1ccc(Cl)cc1)C(O)(CCN(C)C)c1ccccc1 (single isomer, unassigned) [Compound 37] | 7.9 | 0.34 | – | – |
| COc1nc2ccc(Br)cc2cc1C(c1ccccc1)C(O)(CCN(C)C)c1cccc(F)c1 (stereo not drawn) [Compound 38] | 7.9 | 8.30 | – | – |
| COc1nc2ccc(Br)cc2cc1C(c1ccccc1)C(O)(CCN(C)C)c1ccc2c(c1)OCO2 (racemic) [Compound 76] | 5.9 | 1.74 | – | – |
| COc1nc2ccc(Br)cc2cc1C(c1ccccc1)C(O)(CCN(C)C)c1ccccc1F (racemic) [Compound 70] | 5.8 | 52.35 | – | – |
| COc1nc2ccc(Br)cc2cc1C(c1ccccc1)C(O)(CCN1CCSCC1)c1ccccc1 (racemic) [Compound 55] | 5.1 | 44.77 | – | – |
| COc1ccc2nc(OC)c(C(c3ccccc3)C(O)(CCN(C)C)c3cccc4ccccc34)cc2c1 (single isomer, unassigned) [Compound 97] | 5.9 | 20.17 | – | – |
| COc1ccc2nc(OC)c(C(c3ccccc3)C(O)(CCN(C)C)c3cccc4ccccc34)cc2c1 (single isomer, unassigned) [Compound 98] | 7.9 | 0.51 | – | – |
| COc1nc2ccc(-c3cc4ccccc4s3)cc2cc1C(c1ccccc1)C(O)(CCN(C)C)c1cccc(F)c1 (single isomer, unassigned) [Compound 204] | 5.4 | 9.14 | – | – |
| COc1nc2ccc(Br)cc2cc1C(c1ccccc1)C(O)(CCN1CCOCC1)c1ccccc1 (racemic) [Compound 123] | 4.2 | 54.75 | – | – |
| COc1nc2ccc(F)cc2cc1C(c1ccccc1)C(O)(CCN(C)C)c1cc(F)cc(F)c1 (racemic) [Compound 208] | 7.9 | 0.38 | – | – |
| COc1nc2ccc(Br)cc2cc1C(c1ccccc1)C(O)(CCN(C)C)c1ccsc1 (single isomer, unassigned) [Compound 25] | 5.2 | 20.36 | – | – |
| COc1nc2ccc(Br)cc2cc1C(c1ccccc1)C(O)(CCN(C)C)c1cccc(C(F)(F)F)c1 (single isomer, unassigned) [Compound 183] | 8.3 | 0.36 | – | – |
| CSc1nc2ccc(Br)cc2cc1C(c1ccccc1)C(O)(CCN(C)C)c1ccccc1 (single isomer, unassigned) [Compound 33] | 6.0 | 8.27 | – | – |
| COc1nc2ccc(Br)cc2cc1C(c1ccccc1)C(O)(CCN1CCCC1)c1ccc2ccccc2c1 (single isomer, unassigned) [Compound 144] | 7.0 | 52.46 | – | – |

| SMILES | pIC50 (M. Smegmatis ATCC607) | MIC [1] [microgram/ml] | MIC [1, 2] [µg/mL] | IC50 (M. Smegmatis ATCC607; Mycolicibacterium smegmatis, ATCC607, 48 h, read-out: pIC50 (converted)) [nM] |
| --- | --- | --- | --- | --- |
| COc1nc2ccc(Br)cc2cc1C(c1ccccc1)C(O)(CCN(C)C)c1c(F)cccc1F (single isomer, unassigned) [Compound 167] | 5.5 | 43.01 | – | – |
| COc1nc2cc(C)c(Br)cc2cc1C(c1ccccc1)C(O)(CCN(C)C)c1cc(F)cc(F)c1 (single isomer, unassigned) [Compound 227] | 7.5 | 1.76 | – | – |
| COc1nc2ccc(Br)cc2cc1C(c1ccccc1)C(O)(CCCN(C)C)c1cccc2ccccc12 (single isomer, unassigned) [Compound 199] | 6.5 | 47.47 | – | – |
| COc1nc2ccc(Br)cc2cc1C(c1ccccc1)C(O)(CCN(C)C)c1ccc2c3c(cccc13)CC2 (single isomer, unassigned) [Compound 122] | 4.8 | 58.16 | – | – |
| COc1nc2ccc(Cl)cc2cc1C(c1ccccc1)C(O)(CCN(C)C)c1ccccc1 (single isomer, unassigned) [Compound 31] | 5.8 | 7.31 | – | – |
| COc1nc2ccc(Br)cc2cc1C(c1ccccc1)C(O)(CCN1CCN(C)CC1)c1cccc2ccccc12 (single isomer, unassigned) [Compound 156] | 5.3 | 9.68 | – | – |
| COc1nc2ccc(Br)cc2cc1C(c1ccccc1)C(O)(CCN1CCN(C)CC1)c1ccc2cc(Br)ccc2c1 (single isomer, unassigned) [Compound 154] | 4.9 | 68.95 | – | – |
| COc1nc2ccc(Br)cc2cc1C(c1ccccc1)C(O)(CCN(C)C)c1cccs1 (single isomer, unassigned) [Compound 21] | 5.4 | 16.17 | – | – |
| COc1nc2ccc(Br)cc2cc1C(c1ccccc1)C(O)(CCN1CCOCC1)c1ccccc1 (racemic) [Compound 124] | 5.3 | 54.75 | – | – |
| COc1nc2ccc(Br)cc2cc1C(c1ccccc1)C(O)(CCN(C)C)c1ccc(F)c(F)c1 (racemic) [Compound 196] | 6.6 | 1.71 | – | – |
| COc1ccc2nc(OC)c(C(c3ccccc3)C(O)(CCN(C)C)c3ccccc3)cc2c1 (single isomer, unassigned) [Compound 34] | 5.1 | 45.66 | – | – |
| COc1nc2ccc(Br)cc2cc1C(c1ccccc1)C(O)(CC[N+](C)(C)C)c1cccc2ccccc12.[I-] (single isomer, unassigned) [Compound 102] | 6.5 | 2.21 | – | – |
| COc1nc2ccc(Br)cc2cc1C(c1ccccc1)C(O)(CC[N+](C)(C)[O-])c1cccc2ccccc12 (racemic) [Compound 101] | 5.8 | 9.06 | – | – |
| COc1nc2ccc(Br)cc2cc1C(c1ccccc1)C(O)(CCN(C)C)c1ccc(Cl)cc1 (single isomer, unassigned) [Compound 17] | 6.5 | 1.71 | – | – |
| CCN(C)CCC(O)(c1ccc2ccccc2c1)C(c1ccccc1)c1cc2cc(Br)ccc2nc1OC (stereo not drawn) [Compound 141] | 7.3 | – | 9.03 (≈ 15.9 µM) | – |
| COc1nc2ccc(C)cc2cc1C(c1ccccc1)C(O)(CCN(C)C)c1ccccc1 (single isomer, unassigned) [Compound 22] | 7.2 | 1.11 | – | – |
| CNCCC(O)(c1cccc2ccccc12)C(c1ccccc1)c1cc2cc(Br)ccc2nc1OC (stereo not drawn) [Compound 56] | – | – | 43 (≈ 79.4 µM) | 63.1 |
| COc1nc2cc(C)c(Br)cc2cc1C(c1ccccc1)C(O)(CCN(C)C)c1cccc2ccccc12 (single isomer, unassigned) [Compound 225] | 6.6 | 1.80 | – | – |

Source: patent US7498343B2, “Mycobacterial inhibitors” (priority 2002, dated 2009)
